From patent US12357629B2, “Uses of BCL-2 antagonists for treating cancer and diagnostics related thereto” (Emory University, priority 2018, dated 2025)
Entries after “also recorded” stand apart in the source; their conditions may differ. Where two headings read alike, the source gives them in different places.

Key:
[1] = tested on: ABT-199 resistant MM lines (KMS11, L363, RPMI-8226, MM.1S, U266)
Protocol: Complex I inhibition with piercidin or SDHA inhibition with 3-NPA. L363, MM.15 and KMS 11 cells were cultured in the presence or absence of 0.S μM ABT-199 with or without either Complex I inhibitor piericidin (0.001 mM) or Complex II inhibitor 3NPA (1 mM) or TTFA (100 μM) for 24 hrs.
KMS11, L363, RPMI-8226, MM.1S, U266 (ABT-199 resistant cell lines) and KMS12PE and OCIMY5 (ABT-199 sensitive cell lines) were cultured in presence of SQR inhibitor TTFA (100 uM) or DEX (0.5 uM) either alone or in combination with ABT-199 (0.5 uM) for 24 hrs. Cell viability was assessed by Annexin V-DAPI staining and Flow cytometry.
Resistant MM lines were treated with TTFA and/or a dose range of ABT-199 and cell death evaluated by Annexin V/DAPI staining.

[2] = tested on: MM patients exhibiting the (11;14) translocation; conditions: t(11;14) patients, cited from earlier work
[3] = tested on: normal cell populations contained within the bone marrow aspirate of patient sample; assay: Cytotoxicity in normal cells within myeloma patient sample; format: cell-based
From the text: Synthetic lethality are not cytotoxic as a single agent in cell lines or primary normal cells associated with a myeloma patient sample.

[4] = tested on: BIM, BIM-Bcl-2 binding, Foxo3a; assay: Protein expression and co-immunoprecipitation analyses upon SDH inhibition; format: cell-based
From the text: Thus, a tumor selective approach of metabolically-driven synthetic lethality relies on inhibition of the mitochondrial enzyme SDH and use of the Bcl-2 antagonist, e.g., ABT-199 for myeloma therapy.

[5] = target: Complex II/SDH succinate ubiquinone reductase (SQR) activity (Homo sapiens, UniProt O14521+P21912+P31040+Q99643); assay: SQR (succinate ubiquinone reductase) activity assay in permeabilized cells, DCPIP absorbance at 600 nm; conditions: for SQR activity upon addition of inhibitor: KMS11 cells, 20 mM succinate as substrate, malonate 5 mM
Protocol: Cells are resuspended in permeabilization buffer (10 mM KH2PO4 pH 7.8, 2 mM EDTA and 1 mg/ml BSA). 20 mM succinate is added as a substrate with or without 5 mM malonate (an SDH inhibitor) followed by a 10 min incubation at RT. SQR activity is determined by measuring electron transfer from succinate to decylubiquinone and 2,6-dichlorophenolindophenol (DCPIP) that leads to a change in absorbance of DCPIP monitored at 600 nm for 10 min.
SQR activity is measured in live permeabilized cells, with intact mitochondria by pre-treating with inhibitors of Complex I (rotenone) and Complex III (antimycin) leaving Complex II/SDH activity intact. SQR activity correlates with electron transfer from ubiquinone bound in SQR's Qp site to the redox sensitive dye, DCIPIP.

[6] = tested on: CD38+ve MM cells from myeloma patient samples; assay: Cytotoxicity in myeloma patient sample cells; format: cell-based, human; conditions: TTFA with ABT-199
[7] = ABT-199 0.5 μM with TTFA 100 μM, piericidin 0.001 mM or 3NPA 1 mM, 24 hrs, Annexin V/DAPI

Sequence of Complex II/SDH succinate ubiquinone reductase (SQR) activity (P31040 43-664): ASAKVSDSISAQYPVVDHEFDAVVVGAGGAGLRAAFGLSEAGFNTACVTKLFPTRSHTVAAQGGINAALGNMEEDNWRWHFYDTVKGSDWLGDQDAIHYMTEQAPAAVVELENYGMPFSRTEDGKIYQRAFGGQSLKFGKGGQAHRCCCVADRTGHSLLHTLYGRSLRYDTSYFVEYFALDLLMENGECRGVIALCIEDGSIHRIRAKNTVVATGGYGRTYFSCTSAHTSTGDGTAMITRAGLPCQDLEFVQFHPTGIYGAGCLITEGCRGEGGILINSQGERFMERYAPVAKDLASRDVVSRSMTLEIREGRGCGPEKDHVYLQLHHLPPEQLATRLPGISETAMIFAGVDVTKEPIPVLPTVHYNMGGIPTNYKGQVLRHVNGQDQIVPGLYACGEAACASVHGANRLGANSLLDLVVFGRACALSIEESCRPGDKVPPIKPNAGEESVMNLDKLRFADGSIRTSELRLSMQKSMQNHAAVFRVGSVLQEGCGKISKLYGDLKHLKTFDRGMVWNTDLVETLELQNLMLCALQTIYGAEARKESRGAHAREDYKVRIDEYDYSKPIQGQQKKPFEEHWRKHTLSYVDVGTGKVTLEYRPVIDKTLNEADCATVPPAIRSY
Sequence of Complex II/SDH succinate ubiquinone reductase (SQR) activity (P21912 29-280): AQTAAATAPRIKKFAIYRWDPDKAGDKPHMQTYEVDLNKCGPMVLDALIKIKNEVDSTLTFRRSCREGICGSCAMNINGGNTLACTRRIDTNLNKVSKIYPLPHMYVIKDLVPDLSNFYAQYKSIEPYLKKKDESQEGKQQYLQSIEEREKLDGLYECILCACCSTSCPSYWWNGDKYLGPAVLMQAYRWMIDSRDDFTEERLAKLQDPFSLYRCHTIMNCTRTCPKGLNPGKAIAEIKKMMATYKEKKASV
Sequence of Complex II/SDH succinate ubiquinone reductase (SQR) activity (Q99643 30-169): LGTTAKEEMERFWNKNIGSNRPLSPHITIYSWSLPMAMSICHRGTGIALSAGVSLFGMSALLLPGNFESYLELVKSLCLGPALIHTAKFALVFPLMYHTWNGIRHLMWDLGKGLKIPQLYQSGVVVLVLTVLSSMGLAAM
Sequence of Complex II/SDH succinate ubiquinone reductase (SQR) activity (O14521 57-159): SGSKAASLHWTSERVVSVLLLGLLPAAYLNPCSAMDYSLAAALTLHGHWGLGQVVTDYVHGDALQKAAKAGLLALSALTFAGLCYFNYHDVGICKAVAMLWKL

## O=C(O)CC[N+](=O)[O-] [3-NPA]
[1]; [7]
  Sensitization of resistant MM cell lines to ABT-199: not as effective
[1]; ABT-199 0.5 μM with TTFA 100 μM, piericidin 0.001 mM or 3NPA 1 mM, 24 hrs, Annexin V/DAPI, listed as 3NPA
  Sensitization of resistant MM cell lines to ABT-199: not as effective as TTFA

## CC1(C)CCC(CN2CCN(c3ccc(C(=O)NS(=O)(=O)c4ccc(NCC5CCOCC5)c([N+](=O)[O-])c4)c(Oc4cnc5[nH]ccc5c4)c3)CC2)=C(c2ccc(Cl)cc2)C1 [ABT-199, 4-(4-{[2-(4-chlorophenyl)-4,4-dimethylcyclohex-1-en-1-yl]methyl}piperazin-1-yl)-N-({3-nitro-4-[(tetrahydro-2H-pyran-4-ylmethyl)amino]phenyl}sulfonyl)-2-(1H-pyrrolo[2,3-b]pyridin-5-yloxy)benzamide]
[1]; individually
  Cytotoxicity as single agent in MM: did not elicit cytotoxicity
[2]; listed as venetoclax
  Share of t(11;14) MM patients responsive to single agent: About 40%
[2]
  Share of t(11;14) MM patients responsive to single agent: 40%
[3]; bone marrow aspirate of patient sample #2
  Cytotoxicity in normal cells of myeloma patient sample: did not exhibit significant cytotoxicity

## O=C(CC(=O)C(F)(F)F)c1cccs1 [TTFA, 4,4,4-trifluoro-1-(thiophen-2-yl)butane-1,3-dione]
[1]
  Cytotoxicity as single agent in MM: did not elicit cytotoxicity
  Sensitization of resistant MM cell lines to ABT-199: potent sensitization; also recorded: sensitizes MM cells to ABT-199; also recorded: sensitized resistant MM cells to ABT-199
[1]; TTFA 100 uM, DEX 0.5 uM, ABT-199 0.5 uM, 24 hrs
  Effect on Dex-induced death: additive to Dex-induced death
[3]
  Cytotoxicity in normal cells of myeloma patient sample: did not exhibit significant cytotoxicity
[4]; SDH inhibition with TTFA
  BIM expression: induction of BIM
  BIM-Bcl-2 binding (co-immunoprecipitation): enhanced BIM-Bcl-2 binding
[4]; TTFA treated cells
  Foxo3a localization: nuclear localization
  Foxo3a phosphorylation: reduction of Foxo3a phosphorylation
[5]
  SQR activity upon addition of inhibitor: lack of activity
[5]; MM cells
  SQR activity at maximal dose of TTFA that did not cause cytotoxicity in MM: inhibited SQR activity
[6]
  Sensitization of MM patient cells to ABT-199: potent sensitization; also recorded: sensitizes

## COc1[nH]c(=O)c(C(=O)C(C)CC(C)C(Cl)CCl)c(O)c1OC (centres unmarked) [atpenin A5, 3-[5,6-dichloro-2,4-dimethylhexanoyl]-4-hydroxy-5,6-dimethoxy-1H-pyridin-2-one]
[1]; [7]
  Sensitization of resistant MM cell lines to ABT-199: sensitizes resistant cell lines

## C/C=C(\C)[C@H](O)[C@H](C)/C=C(C)/C=C/C/C(C)=C/Cc1nc(OC)c(OC)c(O)c1C [piericidin]
[1]; [7]
  Sensitization of resistant MM cell lines to ABT-199: not as effective

## malonate
[5]
  SQR activity upon addition of inhibitor: lack of activity
